Measured values taken from patent US9936701B2, “Herbicidal compounds” (Syngenta Participations AG, priority 2013, dated 2018).

test system: a variety of test species; assay: Pre-emergence herbicidal activity (glasshouse, sprayed one day after sowing, evaluated after 13 days); type: in vivo; parameters: key: 5=total damage to plant; 0=no damage to plant; conditions: ABUTH, application pre-emergence, rate 1000 g/Ha, scale 0-5
Procedure: Seeds of a variety of test species were sown in standard soil in pots. After cultivation for one day (pre-emergence) under controlled conditions in a glasshouse (at 24/16° C., day/night; 14 hours light; 65% humidity), the plants were sprayed with an aqueous spray solution derived from the formulation of the technical active ingredient in acetone/water (50:50) solution containing 0.5% Tween 20 (polyoxyethelyene sorbitan monolaurate, CAS RN 9005-64-5). The test plants were then grown in a glasshouse under controlled conditions (at 24/16° C., day/night; 14 hours light; 65% humidity) and watered twice daily. After 13 days, the test was evaluated (5=total damage to plant; 0=no damage to plant).

Structure (SMILES)	Pre-emergence herbicidal damage score, ABUTH
CCC1=C(I)C(=O)N(c2cc(C(C)(C)C)on2)C1O (stereo not drawn) [A13]	3
CCC1=C(Br)C(=O)N(c2cc(C(C)(C)C)on2)C1O (stereo not drawn) [A14]	5
CC(C)(C)c1cc(N2C(=O)C(Cl)=C(C3CC3)C2O)no1 (stereo not drawn) [A15]	5
CCC1=C(Cl)C(=O)N(c2cc(C(C)(C)C)on2)C1O (stereo not drawn) [A16]	5

same assay, conditions: ALOMY, application pre-emergence, rate 1000 g/Ha, scale 0-5

Structure (SMILES)	Pre-emergence herbicidal damage score, ALOMY
CCC1=C(I)C(=O)N(c2cc(C(C)(C)C)on2)C1O (stereo not drawn) [A13]	3
CCC1=C(Br)C(=O)N(c2cc(C(C)(C)C)on2)C1O (stereo not drawn) [A14]	3
CC(C)(C)c1cc(N2C(=O)C(Cl)=C(C3CC3)C2O)no1 (stereo not drawn) [A15]	2
CCC1=C(Cl)C(=O)N(c2cc(C(C)(C)C)on2)C1O (stereo not drawn) [A16]	4

same assay, conditions: AMARE, application pre-emergence, rate 1000 g/Ha, scale 0-5

Structure (SMILES)	Pre-emergence herbicidal damage score, AMARE
CCC1=C(I)C(=O)N(c2cc(C(C)(C)C)on2)C1O (stereo not drawn) [A13]	5
CCC1=C(Br)C(=O)N(c2cc(C(C)(C)C)on2)C1O (stereo not drawn) [A14]	5
CC(C)(C)c1cc(N2C(=O)C(Cl)=C(C3CC3)C2O)no1 (stereo not drawn) [A15]	5
CCC1=C(Cl)C(=O)N(c2cc(C(C)(C)C)on2)C1O (stereo not drawn) [A16]	5

same assay, conditions: ECHCG, application pre-emergence, rate 1000 g/Ha, scale 0-5

Structure (SMILES)	Pre-emergence herbicidal damage score, ECHCG
CCC1=C(I)C(=O)N(c2cc(C(C)(C)C)on2)C1O (stereo not drawn) [A13]	3
CCC1=C(Br)C(=O)N(c2cc(C(C)(C)C)on2)C1O (stereo not drawn) [A14]	4
CC(C)(C)c1cc(N2C(=O)C(Cl)=C(C3CC3)C2O)no1 (stereo not drawn) [A15]	4
CCC1=C(Cl)C(=O)N(c2cc(C(C)(C)C)on2)C1O (stereo not drawn) [A16]	5

same assay, conditions: SETFA, application pre-emergence, rate 1000 g/Ha, scale 0-5

Structure (SMILES)	Pre-emergence herbicidal damage score, SETFA
CCC1=C(I)C(=O)N(c2cc(C(C)(C)C)on2)C1O (stereo not drawn) [A13]	3
CCC1=C(Br)C(=O)N(c2cc(C(C)(C)C)on2)C1O (stereo not drawn) [A14]	5
CC(C)(C)c1cc(N2C(=O)C(Cl)=C(C3CC3)C2O)no1 (stereo not drawn) [A15]	3
CCC1=C(Cl)C(=O)N(c2cc(C(C)(C)C)on2)C1O (stereo not drawn) [A16]	5

same assay, conditions: ZEAMX, application pre-emergence, rate 1000 g/Ha, scale 0-5

Structure (SMILES)	Pre-emergence herbicidal damage score, ZEAMX
CCC1=C(I)C(=O)N(c2cc(C(C)(C)C)on2)C1O (stereo not drawn) [A13]	1
CCC1=C(Br)C(=O)N(c2cc(C(C)(C)C)on2)C1O (stereo not drawn) [A14]	2
CC(C)(C)c1cc(N2C(=O)C(Cl)=C(C3CC3)C2O)no1 (stereo not drawn) [A15]	2
CCC1=C(Cl)C(=O)N(c2cc(C(C)(C)C)on2)C1O (stereo not drawn) [A16]	3

test system: a variety of test species; assay: Post-emergence herbicidal activity (glasshouse, sprayed after 8 days cultivation, evaluated after 13 days); type: in vivo; parameters: key: 5=total damage to plant; 0=no damage to plant; conditions: Abutilon theophrasti, rate 1000 g/Ha, scale 0-5
Procedure: Seeds of a variety of test species were sown in standard soil in pots. After 8 days cultivation (post-emergence) under controlled conditions in a glasshouse (at 24/16° C., day/night; 14 hours light; 65% humidity), the plants were sprayed with an aqueous spray solution derived from the formulation of the technical active ingredient in acetone/water (50:50) solution containing 0.5% Tween 20 (polyoxyethelyene sorbitan monolaurate, CAS RN 9005-64-5). The test plants were then grown in a glasshouse under controlled conditions (at 24/16° C., day/night; 14 hours light; 65% humidity) and watered twice daily. After 13 days, the test was evaluated (5=total damage to plant; 0=no damage to plant).

Structure (SMILES)	ABUTH (Abutilon theophrasti) damage score, application post-emergence
CC1=C(Cl)C(=O)N(c2cc(C(C)(C)C)on2)[C@H]1O [A9]	5
CCC1=C(I)C(=O)N(c2cc(C(C)(C)C)on2)C1O (stereo not drawn) [A13]	5
CCC1=C(Br)C(=O)N(c2cc(C(C)(C)C)on2)C1O (stereo not drawn) [A14]	5
CC(C)(C)c1cc(N2C(=O)C(Cl)=C(C3CC3)C2O)no1 (stereo not drawn) [A15]	5
CCC1=C(Cl)C(=O)N(c2cc(C(C)(C)C)on2)C1O (stereo not drawn) [A16]	5

same assay, conditions: Alopecurus myosuroides, rate 1000 g/Ha, scale 0-5

Structure (SMILES)	ALOMY (Alopecurus myosuroides) damage score, application post-emergence
CC1=C(Cl)C(=O)N(c2cc(C(C)(C)C)on2)[C@H]1O [A9]	4
CCC1=C(I)C(=O)N(c2cc(C(C)(C)C)on2)C1O (stereo not drawn) [A13]	5
CCC1=C(Br)C(=O)N(c2cc(C(C)(C)C)on2)C1O (stereo not drawn) [A14]	5
CC(C)(C)c1cc(N2C(=O)C(Cl)=C(C3CC3)C2O)no1 (stereo not drawn) [A15]	4
CCC1=C(Cl)C(=O)N(c2cc(C(C)(C)C)on2)C1O (stereo not drawn) [A16]	5

same assay, conditions: Amaranthus retroflexus, rate 1000 g/Ha, scale 0-5

Structure (SMILES)	AMARE (Amaranthus retroflexus) damage score, application post-emergence
CC1=C(Cl)C(=O)N(c2cc(C(C)(C)C)on2)[C@H]1O [A9]	5
CC1=C(Cl)C(=O)N(c2cc(C(C)(C)C)on2)[C@H]1O [A10]	5
CCC1=C(I)C(=O)N(c2cc(C(C)(C)C)on2)C1O (stereo not drawn) [A13]	5
CCC1=C(Br)C(=O)N(c2cc(C(C)(C)C)on2)C1O (stereo not drawn) [A14]	4
CC(C)(C)c1cc(N2C(=O)C(Cl)=C(C3CC3)C2O)no1 (stereo not drawn) [A15]	5
CCC1=C(Cl)C(=O)N(c2cc(C(C)(C)C)on2)C1O (stereo not drawn) [A16]	5

same assay, conditions: Echinochloa crus-galli, rate 1000 g/Ha, scale 0-5

Structure (SMILES)	ECHCG (Echinochloa crus-galli) damage score, application post-emergence
CC1=C(Cl)C(=O)N(c2cc(C(C)(C)C)on2)[C@H]1O [A9]	5
CC1=C(Cl)C(=O)N(c2cc(C(C)(C)C)on2)[C@H]1O [A10]	5
CCC1=C(I)C(=O)N(c2cc(C(C)(C)C)on2)C1O (stereo not drawn) [A13]	5
CCC1=C(Br)C(=O)N(c2cc(C(C)(C)C)on2)C1O (stereo not drawn) [A14]	5
CC(C)(C)c1cc(N2C(=O)C(Cl)=C(C3CC3)C2O)no1 (stereo not drawn) [A15]	5
CCC1=C(Cl)C(=O)N(c2cc(C(C)(C)C)on2)C1O (stereo not drawn) [A16]	5

same assay, conditions: Setaria faberi, rate 1000 g/Ha, scale 0-5

Structure (SMILES)	SETFA (Setaria faberi) damage score, application post-emergence
CC1=C(Cl)C(=O)N(c2cc(C(C)(C)C)on2)[C@H]1O [A9]	5
CC1=C(Cl)C(=O)N(c2cc(C(C)(C)C)on2)[C@H]1O [A10]	5
CCC1=C(I)C(=O)N(c2cc(C(C)(C)C)on2)C1O (stereo not drawn) [A13]	5
CCC1=C(Br)C(=O)N(c2cc(C(C)(C)C)on2)C1O (stereo not drawn) [A14]	5
CC(C)(C)c1cc(N2C(=O)C(Cl)=C(C3CC3)C2O)no1 (stereo not drawn) [A15]	5
CCC1=C(Cl)C(=O)N(c2cc(C(C)(C)C)on2)C1O (stereo not drawn) [A16]	5

same assay, conditions: Zea mays, rate 1000 g/Ha, scale 0-5

Structure (SMILES)	ZEAMX (Zea mays) damage score, application post-emergence
CC1=C(Cl)C(=O)N(c2cc(C(C)(C)C)on2)[C@H]1O [A9]	5
CCC1=C(I)C(=O)N(c2cc(C(C)(C)C)on2)C1O (stereo not drawn) [A13]	2
CCC1=C(Br)C(=O)N(c2cc(C(C)(C)C)on2)C1O (stereo not drawn) [A14]	4
CC(C)(C)c1cc(N2C(=O)C(Cl)=C(C3CC3)C2O)no1 (stereo not drawn) [A15]	3
CCC1=C(Cl)C(=O)N(c2cc(C(C)(C)C)on2)C1O (stereo not drawn) [A16]	5
